# Patent publication US20120088753A1, “PYRROLOPYRIMIDINES AND USED AS KINASE INHIBITORS” (MEDICAL RESEARCH COUNCIL TECHNOLOGY, priority 2009, published 2012)
# pIC50: −log10 of the molar value.
# Biological target: T1, TBK1 (Homo sapiens, UniProt Q9UHD2)
# T1 construct: All protein kinases were of human origin and encoded full length proteins, unless indicated otherwise; His6; made in house; host or cells: insect Sf21 cells
# T1 sequence (Q9UHD2 1-729): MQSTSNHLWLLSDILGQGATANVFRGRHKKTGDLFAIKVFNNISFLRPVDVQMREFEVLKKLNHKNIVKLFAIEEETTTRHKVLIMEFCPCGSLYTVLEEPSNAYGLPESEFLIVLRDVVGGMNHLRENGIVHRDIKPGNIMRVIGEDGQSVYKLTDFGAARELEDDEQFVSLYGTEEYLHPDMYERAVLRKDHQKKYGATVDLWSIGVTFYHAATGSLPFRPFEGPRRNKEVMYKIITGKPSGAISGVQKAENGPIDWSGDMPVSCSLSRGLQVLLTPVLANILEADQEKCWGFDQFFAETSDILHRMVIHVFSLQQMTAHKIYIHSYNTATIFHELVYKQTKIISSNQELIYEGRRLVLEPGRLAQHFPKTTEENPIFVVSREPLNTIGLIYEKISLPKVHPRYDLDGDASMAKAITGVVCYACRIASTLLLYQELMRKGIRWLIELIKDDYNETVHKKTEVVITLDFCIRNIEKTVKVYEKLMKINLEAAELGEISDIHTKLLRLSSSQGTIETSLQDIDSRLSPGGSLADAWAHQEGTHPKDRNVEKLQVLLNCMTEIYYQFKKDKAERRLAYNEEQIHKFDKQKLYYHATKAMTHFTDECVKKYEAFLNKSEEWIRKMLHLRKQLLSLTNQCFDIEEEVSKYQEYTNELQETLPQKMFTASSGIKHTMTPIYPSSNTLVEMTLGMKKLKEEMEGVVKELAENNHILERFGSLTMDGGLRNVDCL
# Assay: TBK1 protein kinase assay ([γ-33P]ATP filter-plate, IC50 from 10 concentrations)
# Assay type: biochemical
# Details: 50 μM ATP, peptide substrate 300 μM, 30 min, 21° C.; read-out: Potency score (TBK1 IC50)
# From the text: All protein kinases were of human origin and encoded full length proteins, unless indicated otherwise. They were either expressed as glutathione S-transferase (GST) fusion proteins in Escherichia Coli or as hexahistidine (His6)-tagged proteins in insect Sf21 cells. GST fusion proteins were purified by affinity chromatography on glutathione-Sepharose, and His6-tagged proteins on nickel/nitriloacetate-agarose. The procedures for expressing some of the protein kinases used herein have been detailed previously.^8,9 The following sections outline the DNA vectors synthesised and the procedures used to express and purifying protein kinases that have not been reported previously.
# The following kinases were expressed in Sf21 cells: Aurora B and Aurora C, extra-cellular signal-regulated kinase 8 (ERK8), microtubule affinity regulating kinase 3 (MARK3), protein kinase Bα[118-480][S473D], protein kinase Bβ (PKBβ[120-481][S474D], 3-phosphoinositide-dependent protein kinase-1 [52-556] (PDK1[52-556], IKKε, TBK1,
# All assays (25.5 μl) were carried out at room temperature (21° C.) and were linear with respect to time and enzyme concentration under the conditions used. Assays were performed for 30 min using Multidrop Micro reagent dispensers (Thermo Electron Corporation, Waltham, Mass. 02454, USA) in a 96-well format. The concentration of magnesium acetate in the assays was 10 mM and the [γ-33P] ATP (800 cpm/pmol) was used at 5, 20 or 50 μM as indicated, in order to be at or below the Km for ATP for each enzyme. Protein kinases assayed at 5 μM ATP were: ERK1, ERK8, PKBα, MARK3, Aurora C. Protein kinases assayed at 20 μM ATP were: JNK1, PDK1, CHK1, CHK2, CDK2 and Aurora B. Protein kinases assayed at 50 μM ATP were: MNK2, IKKepsilon and TBK1.
# The assays were initiated with MgATP, stopped by addition of 5 μl of 0.5 M orthophosphoric acid and spotted on to P81 filterplates using a unifilter harvester (PerkinElmer, Boston, Mass. 02118, USA). The IC50 values of inhibitors were determined after carrying out assays at 10 different concentrations of each compound.
# ERK1 and ERK8 were both assayed against myelin basic protein (MBP, 0.33 mg/ml). MARK3 was assayed against the peptide […] (300 μM), MNK2 against the eIF4E protein (0.5 mg/ml). PKBβ was assayed against the peptide GRPRTSSFAEGKK (30 μM). TBK1 were assayed against ([…]) (300 μM). The substrates used for other protein kinases were described previously.^8,9
# Unless stated otherwise, enzymes were diluted in 50 mM Tris/HCl pH 7.5, 0.1 mM EGTA, 1 mg/ml BSA, 0.1% (v/v) 2-mercaptoethanol and assayed in 50 mM Tris/HCl pH 7.5, 0.1 mM EGTA, 0.1% (v/v) 2-mercaptoethanol.
row,pIC50,Compound
1,> 7.00,"O=C(NCCCn1ccc2cnc(Nc3cccc(CN4CCOCC4)c3)nc21)C1CCC1 [Example 52, Cyclobutanecarboxylic acid {3-[2-(3-morpholin-4-ylmethyl-phenylamino)-pyrrolo[2,3-d]pyrimidin-7-yl]-propyl}-amide]"
2,> 7.00,"CN1CCc2ccc(Nc3ncc4ccn(CCCNC(=O)C5CCC5)c4n3)cc2C1 [Example 53, Cyclobutanecarboxylic acid {3-[2-(2-methyl-1,2,3,4-tetrahydro-isoquinolin-7-ylamino)-pyrrolo[2,3-d]pyrimidin-7-yl]-propyl}-amide]"
3,> 7.00,"O=C(NCCCn1ccc2cnc(Nc3ccc(-c4cnco4)cc3)nc21)C1CCC1 [Example 54, Cyclobutanecarboxylic acid {3-[2-(4-oxazol-5-yl-phenylamino)-pyrrolo[2,3-d]pyrimidin-7-yl]-propyl}-amide]"
4,6.00 to 7.00,"CN1CCCN(c2ccc(Nc3ncc4ccn(CCCNC(=O)C5CCC5)c4n3)cn2)CC1 [Example 55, Cyclobutanecarboxylic acid (3-{2-[6-(4-methyl-perhydro-1,4-diazepin-1-yl)-pyridin-3-ylamino]-pyrrolo[2,3-d]pyrimidin-7-yl}-propyl)-amide]"
5,> 7.00,"CN1CCC(c2ccc(Nc3ncc4ccn(CCCNC(=O)C5CCC5)c4n3)cc2)CC1 [Example 56, Cyclobutanecarboxylic acid (3-{2-[4-(1-methyl-piperidin-4-yl)-phenylamino]-pyrrolo[2,3-d]pyrimidin-7-yl}-propyl]-amide]"
6,> 7.00,"CN1CCC(O)(c2ccc(Nc3ncc4ccn(CCCNC(=O)C5CCC5)c4n3)cc2)CC1 [Example 57, Cyclobutanecarboxylic acid (3-{2-[4-(4-hydroxy-1-methyl-piperidin-4-yl)-phenylamino]-pyrrolo[2,3-d]pyrimidin-7-yl}-propyl)amide]"
7,> 7.00,"COC1(c2ccc(Nc3ncc4ccn(CCCNC(=O)C5CCC5)c4n3)cc2)CCN(C)CC1 [Example 58, Cyclobutanecarboxylic acid (3-{2-[4-(4-methoxy-1-methyl-piperidin-4-yl)-phenylamino]-pyrrolo[2,3-d]pyrimidin-7-yl}-propyl)-amide]"
8,> 7.00,"CN1CCC(C#N)(c2ccc(Nc3ncc4ccn(CCCNC(=O)C5CCC5)c4n3)cc2)CC1 [Example 59, Cyclobutanecarboxylic acid (3-{2-[4-(4-cyano-1-methyl-piperidin-4-yl)-phenylamino]-pyrrolo[2,3-d]pyrimidin-7-yl}-propyl)-amide]"
9,> 7.00,"O=C(NCCCn1ccc2cnc(Nc3ccc(C4CCN(CCF)CC4)cc3)nc21)C1CCC1 [Example 60, Cyclobutanecarboxylic acid [3-(2-{4-[1-(2-fluoro-ethyl)-piperidin-4-yl]-phenylamino}-pyrrolo[2,3-d]pyrimidin-7-yl)-propyl]-amide]"
